Consider 16 compounds from patent publication US11628181B2, “N4-hydroxycytidine and derivatives and anti-viral uses related thereto” (Emory University, priority 2014, dated 2023).

Structures are written as SMILES. In brackets after ≈: the same amount, converted by molar mass. Like-named read-outs stand apart in the source and are kept apart here.

The subject of series [1] is CHIKV.
Series [2] is described as follows: Rodent pharmacokinetic experiment in mice. It is filed as in vivo, DBA-1J mice. The settings on record: for concentration at 24 hr: read-out: 24 hr plasma levels. As to the method: DBA-1J mice (6-8 weeks old, female) were acclimated for ≥2 days after receipt. Mice were weighed the day before dosing to calculate dosing volumes. Mice were dosed by oral gavage with drug at 30 mg/kg, 100 mg/kg & 300 mg/kg. The mice were sampled at […] time points: 0.5, 1, 2, 3, 4, 8 and 24 hrs (3 mice per time point for test drug). The mice were euthanized and their organs were collected (see below). In order to collected blood, mice with euthanized by CO2 at the appropriate time point listed above. Blood was obtained by cardiac puncture (0.3 ml) at each time point. Following blood collection, the organs were removed from the mice (see below). The blood was processed by inverting Li-Heparin tube with blood gently 2 or 3 times to mix well. The tubes were then placed in a rack in ice water until able to centrifuge (≤1 hour). As soon as practical, the blood was centrifuged at ˜2000×g for 10 min in a refrigerated centrifuge to obtain plasma. Then, using a 200 μL pipette, the plasma was transferred to a labeled 1.5 ml Eppendorf tube in ice water. The plasma was then frozen in freezer or on dry ice. The samples were stored at −80° C. prior to analysis. Organs were collected from euthanized mice. The organs (lungs, liver, kidney, spleen and heart) were removed, placed in a tube, and immediately frozen in liquid nitrogen. The tubes were then transferred to dry ice. The samples were saved in cryogenic tissue vials. Samples were analyzed by LC-MS/MS using an ABSCIEX 5500 QTRAP LC-MS/MS system with a Hypercarb (PGC) column.

For series [3] the following is noted: rat, in vivo, po, 50 mg/kg.
The test system of series [4] is CHIK virus. Put plainly: Mouse model of Chikungunya infection. Particulars: CHIKV challenged mice, 25 or 35 mg/kg i.p.
The nature of series [5]: 6 day q.d. intraperitoneal toxicology in mice. It is filed as in vivo. From the text: Alternatively, drug delivery by aerosol (nasal spray) administration may immediately achieve therapeutic levels of drug in the nasal mucosa and the brain.
The test system of series [6] is VEE virus. Put plainly: organism not typed. Format: cell-based. The settings on record: Vero.
Series [7] in a line: Rodent pharmacokinetic experiment in mice. Format: in vivo, DBA-1J mice. Particulars: female, DBA-1J, mouse, plasma, after IV dosing, read-out: plasma T1/2 (converted).
The nature of series [8]: in vivo. Particulars: male, SD, rat, po, 50 mg/kg.
For series [9], the system named is CEM cells. Put plainly: Cytotoxicity profile, selectivity index in CEM cells. It is filed as cell-based. The settings on record: CEM cells (low of range).
The subject of series [10] is SARS Coronavirus Urbani. Description: microbe, parasite or virus in culture. It is filed as cell-based. Particulars: Severe acute respiratory syndrome-related coronavirus, Vero 76.
A short description of series [11]: in vitro. Particulars: African green monkey.
The test system of series [12] is VEEV. Description: microbe, parasite or virus in culture. It is filed as cell-based. Particulars: Venezuelan equine encephalitis virus, Astrocyte; for inhibition at 10 µM: read-out: Viral Inh. 10 uM; for inhibition at 50 µM: read-out: Viral Inh. 50 uM.
In series [13] the test system is Astrocytes.
In series [14] the test system is Vero. Put plainly: Cell viability, Vero (MERV screen). Format: cell-based.
The subject of series [15] is MERV. Put plainly: MERV (MOI 0.4) viral inhibition in Vero. Format: cell-based. Particulars: MERV MOI 0.4, Vero; for inhibition at 10 µM: read-out: Viral Inh. 10 uM; for inhibition at 50 µM: read-out: Viral Inh. 50 uM.
Series [16] in a line: Cytotoxicity (CC50) in HG23, norovirus screening. Format: cell-based. The settings on record: human, HG23 cells; HG23, norovirus screen.
For series [17], the system named is Norovirus GT1. Description: Norovirus GT1 antiviral screening in HG23. Format: cell-based.
The test system of series [18] is VEEV. Put plainly: microbe, parasite or virus in culture. It is filed as cell-based. Particulars: Venezuelan equine encephalitis virus, HeLa; for inhibition at 10 µM: read-out: Viral Inh. 10 uM; for inhibition at 50 µM: read-out: Viral Inh. 50 uM.
Series [19] relates to HeLa. The settings on record: human.

By Cmax is commonly meant the peak of the concentration-time curve. Usually Tmax stands for the time from dosing to the highest level. What is called EC50 is the midpoint of the concentration-response curve. The bioavailability is dose-corrected exposure relative to a reference, in per cent. In the case of `O=c1nc(NO)ccn1[C@@H]1O[C@H](CO)[C@H](O)C1O` (stereo partly drawn) [EIDD-01931, 1-(3,4-dihydroxy-5-(hydroxymethyl)tetrahydrofuran-2-yl)-4-(hydroxyamino)pyrimidin-2-one], the CC50 in series [1] was above 500000 nM. The “Bioavailability (versus I.P. delivery)” value in series [2] (PO 30 mg/kg) was 65%; in [2] (PO 100 and 300 mg/kg), 39-46%. The Cmax in series [2] (female, DBA-1J, mouse, plasma, PO 30 mg/kg) came to 3 ng/mL; in series [2] (female, DBA-1J, mouse, plasma, PO 100 mg/kg) it was 7.7 ng/mL; in [2] (female, DBA-1J, mouse, plasma, PO 300 mg/kg), 11.7 ng/mL. The half-life in series [2] (female, DBA-1J, mouse, plasma, after PO dosing, read-out: plasma T1/2) was 4.1 to 4.7 h; in [7], 2.2 h. The time of peak concentration (Tmax) in [2] (female, DBA-1J, mouse, plasma, oral gavage, read-out: Tmax after oral dosing) lay within 0.25 to 0.5 h. For the same compound, the concentration at 24 hr in series [2] (female, DBA-1J, mouse, plasma, oral, 100 mg/kg dose) was around 100 nM; in series [2] (female, DBA-1J, mouse, plasma, po, 300 mg/kg P.O.) it was around 400 nM. Also, in series [3], the “tissue distribution (brain, lung, spleen, kidney and liver)” value was “well distributed into all tissues tested”. Moreover, in [4] (after 7 days), the “CHIKV RNA copies by PCR (FIG. 8)” value was “reduction of CHIKV RNA copies”. Besides, the “footpad swelling (FIG. 7)” value in series [4] (daily for 7 days) is listed as “reduction in footpad swelling”. For the same compound, in series [5] (6 day q.d. IP injections), the “NOEL (NO Effect Level)” value was determined as 33 mg/kg. Also, in series [5] (highest dose tested (100 mg/kg) IP q.d., reversed on cessation of dosing), the body weight effect entry is “weight loss was observed”. Further, in [6], a half-maximal response (EC50) required 1000 nM. Besides, the bioavailability in series [8] turned out to be 28%. Also, the selectivity index in series [9] was found to be 8.

In series [10], `CCCCCCCCC(=O)ONc1ccn([C@@H]2O[C@H](CO)C(O)C2O)c(=O)n1` (stereo partly drawn) yielded a concentration giving a half-maximal response (EC50) of 0.19 µg/mL (≈ 0.476 µM). In series [11], this compound had a CC50 of 36 µg/mL (≈ 90.1 µM).

On to `CCCCCCCOC(=O)ONc1ccn([C@@H]2O[C@H](CO)C(O)C2O)c(=O)n1` (stereo partly drawn) [drawing 84], for which, in series [12], the inhibition at 10 µM stood at 94% and the inhibition at 50 µM came to 100%. In series [13], the “Cell Viability 10 uM” value was 99% ± 9% (n = 3) and the “Cell Viability 50 uM” value is 94% ± 10% (n = 3).

With `CC(C)OC(=O)[C@H](C)NP(=O)(OC[C@H]1O[C@@H](n2ccc(NO)nc2=O)C(O)C1O)Oc1ccccc1` (stereo partly drawn) [drawing 85], in [12], the inhibition at 10 µM stood at 49% and the inhibition at 50 µM is 96%. In [13], the “Cell Viability 10 uM” value is listed as 102% ± 16% (n = 3) and the “Cell Viability 50 uM” value was 100% ± 17% (n = 3).

Consider `CCCCCCCOC(=O)ONc1ccn([C@@H]2O[C@H](CO)C(O)C2O)c(=O)n1` (stereo partly drawn) [drawing 89], for which, in [14], the “Cell Viability 10 uM” value is 84% ± 8% (n = 4) and the “Cell Viability 50 uM” value is 58% ± 2% (n = 4). In series [15], the inhibition at 10 µM is 99% and the inhibition at 50 µM was 99%.

For `O=c1nc(NO)ccn1[C@@H]1O[C@H](CO)C(O)C1O` (stereo partly drawn) [drawing 83], in series [12], the inhibition at 10 µM came out at 99% and the inhibition at 50 µM was determined as 100%. Moreover, in [13], the “Cell Viability 10 uM” value was 98% ± 12% (n = 3) and the “Cell Viability 50 uM” value is 86% ± 5% (n = 3).

Regarding `CCCCCCCNC(=O)ONc1ccn([C@@H]2O[C@H](CO)C(O)C2O)c(=O)n1` (stereo partly drawn) [drawing 92], in series [14], the “Cell Viability 10 uM” value is recorded as 118% ± 15% (n = 4) and the “Cell Viability 50 uM” value is 91% ± 39% (n = 4). For the same compound, in series [15], the inhibition at 10 µM amounted to 86% and the inhibition at 50 µM was 98%.

Regarding `CCCCCCCOC(=O)ONc1ccn([C@@H]2O[C@H](CO)C(O)C2O)c(=O)n1` (stereo partly drawn) [drawing 70], a half-maximal effect in [10] (EC50) was put at 0.28 µg/mL (≈ 0.698 µM). Also, the CC50 in [11] is above 100 µg/mL.

As for `CCCCCCCNC(=O)ONc1ccn([C@@H]2O[C@H](CO)C(O)C2O)c(=O)n1` (stereo partly drawn) [drawing 87], in series [12], the inhibition at 10 µM worked out at 51% and the inhibition at 50 µM worked out at 37%. In series [13], the “Cell Viability 10 uM” value is 98% ± 12% (n = 3) and the “Cell Viability 50 uM” value was 85% ± 19% (n = 3).

As to `O=c1nc(NO)ccn1[C@@H]1O[C@H](CO)C(O)C1O` (stereo partly drawn) [drawing 68], the EC50 was below 0.1 µg/mL in series [10] and above 100 µg/mL in series [17]. The CC50 in [11] is 36 µg/mL (≈ 139 µM); in series [16], above 100 µg/mL.

With `CC1(O)C(O)[C@@H](CO)O[C@H]1n1ccc(NO)nc1=O` (stereo partly drawn), the EC50 in series [10] and in series [17] was above 100 µg/mL in each case. Further, the CC50 in [11] and in series [16] was above 100 µg/mL each time.

`CC(C)OC(=O)[C@H](C)NP(=O)(OC[C@H]1O[C@@H](n2ccc(NO)nc2=O)C(O)C1O)Oc1ccccc1` (stereo partly drawn) [drawing 90]: in [14], the “Cell Viability 10 uM” value is 103% ± 14% (n = 4) and the “Cell Viability 50 uM” value is listed as 102% ± 36% (n = 4). Moreover, in [15], the inhibition at 10 µM came to 29% and the inhibition at 50 µM is 85%.

As to `O=c1nc(NO)ccn1[C@@H]1O[C@H](CO)C(O)C1O` (stereo partly drawn) [drawing 88], in series [14], the “Cell Viability 10 uM” value is recorded as 75% ± 6% (n = 4) and the “Cell Viability 50 uM” value was 47% ± 3% (n = 4). For the same compound, in [15], the inhibition at 10 µM is 99% and the inhibition at 50 µM was found to be 100%.

Regarding `O=c1nc(NO)ccn1[C@@H]1O[C@H](CO)C(O)C1O` (stereo partly drawn) [drawing 78], in [18], the EC50 amounted to 1240 nM, the inhibition at 10 µM came to 100% and the inhibition at 50 µM was determined as 100%. In series [19], the “Cell Viability 10 uM” value is listed as 116% ± 24% (n = 4) and the “Cell Viability 50 uM” value is 61% ± 8% (n = 4).

`CCCCCCCOC(=O)ONc1ccn([C@@H]2O[C@H](CO)C(O)C2O)c(=O)n1` (stereo partly drawn) [drawing 79]: in series [18], the concentration giving a half-maximal response (EC50) was 570 nM, the inhibition at 10 µM was found to be 100% and the inhibition at 50 µM stood at 100%. Moreover, in series [19], the “Cell Viability 10 uM” value is reported as 116% ± 20% (n = 4) and the “Cell Viability 50 uM” value is 85% ± 8% (n = 4).

`CONc1ccn([C@@H]2O[C@H](CO)C(O)C2O)c(=O)n1` (stereo partly drawn): the 50% effective concentration (EC50) in series [10] is above 100 µg/mL. In series [11], this compound showed a CC50 above 100 µg/mL.
